# Patent publication US20180280465A1 (EVER Neuro Pharma GmbH, priority 2015, published 2018)
# Like-named read-outs stand apart in the source and are kept apart here.
# What was measured:
# [1] = system: NIH/3T3 murine fibroblasts; experiment: Resazurin-fibroblast-assay for assessment of cytotoxicity
# Protocol: The vitality of the fibroblasts was detected with the Resazurin Reagent (Resazurin sodium salt powder (Sigma Aldrich R7017-1G)). Vital and metabolically active cells reduce the non-fluorescent dye resazurin to the fluorescent dye resorufin by using NADH. The amount of fluorescence is proportional to the amount of vital cells. The fluorescence intensity at 535 nm (excitation)/595 nm (emission) is detected with a plate reader.
# Cells were cultured in a culture medium (DMEM high glucose) containing 10% FBS, 2 mM L-glutamine and 100 μg/ml penicilline/streptomycin under standard cell culture conditions (37° C., 5% CO2).
# The cells were then incubated with the respective solutions in the incubator for 4 h, 18 h, or 24 h (depending on the assay protocol). For every time point a separate 96-well plate was prepared. • Day 1 or 2: Readout—Determination of the fluorescence intensity (resazurin readout): For the determination of the fluorescence intensity (resazurin readout) the medium (100 μl/well) was removed and 100 μl/well resazurin was added (final concentration 0.5 mM; 2.2 ml resazurin stock solution prepared in PBS with a final concentration of 2.5 mM was diluted in 8.8 ml proliferation medium). In the wells serving for the blank control (no cells) 100 μl/well resazurin (0.5 mM) was added. The 96-well plate was then incubated for 1 h in the incubator. The fluorescence intensity was then detected at 535 nm (excitation)/595 nm (emission) with a plate reader.
# [2] = cited from earlier work
# [3] = in NaCl solution; cited from earlier work
compound,measurement,setting,value
"O=C1O[C@H]([C@@H](O)CO)C(O)=C1O [Ascorbate, (5R)-[(1S)-1,2-dihydroxyethyl]-3,4-dihydroxyfuran-2(5H)-one]",effect on the toxic effect of oxoapomorphine,[1],had no beneficial effect if the oxidative degradation product oxo-apomorphine was already present in the formulation
"N[C@@H](CCC(=O)N[C@@H](CS)C(=O)NCC(=O)O)C(=O)O [Glutathione, (2S)-2-amino-4-{[(1R)-1-[(carboxymethyl)carbamoyl]-2-sulfanylethyl]carbamoyl}butanoic acid]",effect on the toxic effect of oxoapomorphine,"[1]; NIH/3T3 cells, oxoapomorphine present",could abolish the toxic effect of oxoapomorphine
"CN1CCc2cccc3c2[C@H]1Cc1ccc(O)c(O)c1-3 [apomorphine, (6aR)-6-methyl-5,6,6a,7-tetrahydro-4H-dibenzo[de,g]quinoline-10,11-diol]",duration of effect (mean),[2]; single dose,40 min
same,incidence of nodule formation,"[2]; subcutaneous apomorphine infusion therapy, meta analysis",70%
same,patients terminating therapy because of irritations at the injection site,"[2]; subcutaneous infusion, within one year",70%
same,solubility,[3],< 10000 µg/mL
"CC(O)CO (stereo not drawn) [α-propylene glycol, propane-1,2-diol]",influence of isotonization agent on the cytotoxic effects in the cell culture system,[1]; NIH/3T3 fibroblasts,did not have any influence (negative or positive) on the cytotoxic effects
